Results published in patent US9708336B2, “Metallo-beta-lactamase inhibitors” (priority 2014, dated 2017).
Like-named read-outs stand apart in the source and are kept apart here.

Key:
[1] = target: NDM-1 (Klebsiella pneumoniae, UniProt C7C422); assay: biochemical; assay type: biochemical; conditions: read-out: NDM-1 IC50
[2] = tested on: Escherichia coli expressing NDM-1 (CLB30005); assay: Antibiotic potentiation activity: synergistic concentration (MITC95) with imipenem, OD600 growth; assay type: cell-based; conditions: for Escherichia coli expressing NDM-1 (CLB 30005) MITC95: concentration giving 95% inhibition of bacterial growth; for Escherichia coli MITC95: Escherichia coli expressing NDM-1 (CLB30005), 95% growth inhibition
Outline: (§1)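 Steps: colonies grown overnight at 35 °C; resuspended in saline to OD600 0.11–0.15 by strain; diluted 1:100 into 1.1× CAMHB; imipenem then compound added (antibiotic 4 μg/ml in assay); incubated 35 °C for 22–24 h; absorbance measured.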

[3] = tested on: Escherichia coli expressing NDM-1 (CLB30016); assay: as above; assay type: cell-based; conditions: for Escherichia coli expressing NDM-1 (CLB 30016) MITC95: concentration giving 95% inhibition of bacterial growth; for Escherichia coli MITC95: Escherichia coli expressing NDM-1 (CLB30016), 95% growth inhibition
Outline: as §1

[4] = target: VIM-1 (Pseudomonas aeruginosa (strain ATCC 15692 / DSM 22644 / CIP 104116 / JCM 14847 / LMG 12228 / 1C / PRS 101 / PAO1), UniProt A0A0F7KYQ8); assay: Enzyme activity: determination of IC50, fluorescence assay with CCF2-FA substrate (VIM-1); assay type: biochemical
[5] = target: IMP-1 (Serratia marcescens, UniProt P52699); assay: biochemical; assay type: biochemical; conditions: read-out: IMP-1 IC50
IMP-1, sequence (P52699 whole entry, looked up): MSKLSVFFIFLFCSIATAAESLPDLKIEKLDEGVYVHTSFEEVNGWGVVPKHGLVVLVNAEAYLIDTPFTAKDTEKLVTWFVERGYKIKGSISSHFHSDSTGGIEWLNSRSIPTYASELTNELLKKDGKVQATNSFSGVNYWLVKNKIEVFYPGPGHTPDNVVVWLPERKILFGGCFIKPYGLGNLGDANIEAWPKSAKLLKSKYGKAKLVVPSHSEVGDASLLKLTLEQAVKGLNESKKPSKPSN

[6] = tested on: Serratia marcescens expressing IMP-1 (CL5741); assay: Antibiotic potentiation activity: synergistic concentration (MITC95) with imipenem, OD600 growth; assay type: cell-based; conditions: for Serratia marcescens MITC95: Serratia marcescens expressing IMP-1 (CL5741), 95% growth inhibition; for Serratia marcescens expressing IMP-1 (CL5741) MITC95: concentration giving 95% inhibition of bacterial growth
Outline: as §1

[7] = tested on: Klebsiella pneumoniae expressing VIM-1 (IHMA599644); assay: as above; assay type: cell-based; conditions: for Klebsiella pneumoniae MITC95: Klebsiella pneumoniae expressing VIM-1 (IHMA599644), 95% growth inhibition; for Klebsiella pneumoniae expressing VIM-1 (IHMA 599644) MITC95: concentration giving 95% inhibition of bacterial growth
Outline: as §1

[8] = fluorescence assay with CCF2-FA substrate
[9] = fluorescence assay with CCF2-FA substrate, read-out: VIM-1 IC50
[10] = NDM-1 enzyme, CCF2-FA fluorescence assay
[11] = IMP-1 enzyme, CCF2-FA fluorescence assay
[12] = VIM-1 IC50, fluorescence assay with CCF2-FA substrate
[13] = VIM-1 IC50, VIM-1 enzyme, CCF2-FA fluorescence assay
[14] = VIM-1 enzyme, CCF2-FA fluorescence assay, read-out: VIM-1 IC50

NDM-1, sequence (C7C422 whole entry, looked up, species assumed): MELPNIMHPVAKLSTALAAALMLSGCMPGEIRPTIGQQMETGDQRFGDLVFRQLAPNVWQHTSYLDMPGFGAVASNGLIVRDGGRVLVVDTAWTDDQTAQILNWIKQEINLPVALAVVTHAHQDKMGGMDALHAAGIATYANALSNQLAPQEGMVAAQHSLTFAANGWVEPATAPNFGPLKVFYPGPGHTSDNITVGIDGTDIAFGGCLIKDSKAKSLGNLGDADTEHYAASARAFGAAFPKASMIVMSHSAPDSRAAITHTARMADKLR

| SMILES | IC50 [1, 8] [nM] | Escherichia coli expressing NDM-1 (CLB 30005) MITC95 [2] [µM] | Escherichia coli expressing NDM-1 (CLB 30016) MITC95 [3] [µM] | IC50 [4, 9] [nM] | IC50 [5, 8] [nM] | IC50 [1, 10] [nM] | Serratia marcescens MITC95 [6] [µM] | Escherichia coli MITC95 [2] [µM] | Klebsiella pneumoniae MITC95 [7] [µM] | Escherichia coli MITC95 [3] [µM] | IC50 [5, 11] [nM] | Serratia marcescens expressing IMP-1 (CL5741) MITC95 [6] [µM] | Klebsiella pneumoniae expressing VIM-1 (IHMA 599644) MITC95 [7] [µM] | IC50 [4, 12] [nM] | IC50 [4, 13] [nM] | IC50 [4, 14] [nM] |
| --- | --- | --- | --- | --- | --- | --- | --- | --- | --- | --- | --- | --- | --- | --- | --- | --- |
| NS(=O)(=O)c1nccc(-c2ccccc2)c1-c1nn[nH]n1 [Example 207, 4-phenyl-3-(2H-tetrazol-5-yl)pyridine-2-sulfonamide] | 35.1 | 0.1953 | 0.5 | 201 | 373 |  |  |  |  |  |  |  |  |  |  |  |
| Nc1ncc(-c2cccc(S(N)(=O)=O)c2-c2nn[nH]n2)cc1F [Example 314, 3-(6-amino-5-fluoropyridin-3-yl)-2-(2H-tetrazol-5-yl)benzenesulfonamide] |  |  |  |  |  | 3.65 | 5.469 | 0.1953 | 3.906 | 0.3906 | 292 |  |  |  |  |  |
| NS(=O)(=O)c1nccc(-c2ccc(CO)cc2)c1-c1nnn[nH]1 [Example 181, 4-(4-(Hydroxymethyl)phenyl)-3-(1H-tetrazol-5-yl)pyridine-2-sulfonamide] | 27.9 | 1.953 | 0.6727 | 184 | 375 |  |  |  |  |  |  | 12.5 | 18.75 |  |  |  |
| NS(=O)(=O)c1cccc(-c2ccc(C3CCNC3)cc2)c1-c1nnn[nH]1 (stereo not drawn) [Example 180, 4′-(pyrrolidin-3-yl)-2-(1H-tetrazol-5-yl)-[1,1′-biphenyl]-3-sulfonamide] | 9.91 | 0.3906 | 0.5 | 22.4 | 113 |  |  |  |  |  |  | 3.125 | 4.688 |  |  |  |
| NS(=O)(=O)c1cccc(-c2cnn3ccccc23)c1-c1nn[nH]n1 [Example 98, 3-pyrazolo[1,5-a]pyridin-3-yl-2-(2H-tetrazol-5-yl)benzenesulfonamide] | 2.7 | 0.9766 | 0.7813 |  | 320 |  |  |  |  |  |  | 7.813 | 18.75 | 29.4 |  |  |
| CS(=O)(=O)Nc1ccc(-c2ccnc(S(N)(=O)=O)c2-c2nn[nH]n2)cc1 [Example 206, 4-(4-(methylsulfonamido)phenyl)-3-(2H-tetrazol-5-yl)pyridine-2-sulfonamide] | 11.4 | 0.1953 | 0.375 | 14.2 | 91.5 |  |  |  |  |  |  | 4.125 | 3.125 |  |  |  |
| Cc1ccncc1-c1cccc(S(N)(=O)=O)c1-c1nn[nH]n1 [Example 317, 3-(4-methylpyridin-3-yl)-2-(2H-tetrazol-5-yl)benzenesulfonamide] |  |  |  |  |  | 5.38 | 9.375 | 0.125 | 18.75 | 0.1875 | 360 |  |  |  | 46 |  |
| NS(=O)(=O)c1cccc(-c2ccc3nccn3c2)c1-c1nn[nH]n1 [Example 318, 3-(imidazo[1,2-a]pyridin-6-yl)-2-(2H-tetrazol-5-yl)benzenesulfonamide] |  |  |  |  |  | 2.13 | 6.25 | 0.1953 | 4.688 | 0.0625 | 295 |  |  |  |  | 24.6 |
| CC(=O)Nc1ccc(-c2ccnc(S(N)(=O)=O)c2-c2nn[nH]n2)cc1 [Example 214, N-(4-(2-sulfamoyl-3-(2H-tetrazol-5-yl)pyridin-4-yl)phenyl)acetamide] | 13.2 | 0.1953 | 0.375 | 129 | 98.4 |  |  |  |  |  |  | 3.344 | 37.5 |  |  |  |
| NS(=O)(=O)c1cccc(-c2cnc3[nH]ncc3c2)c1-c1nn[nH]n1 [Example 309, 3-(1H-pyrazolo[3,4-b]pyridin-5-yl)-2-(2H-tetrazol-5-yl)benzenesulfonamide] |  |  |  |  |  | 1.35 | 8.333 | 0.3906 | 5.729 | 0.7813 | 326 |  |  |  |  |  |
| NS(=O)(=O)c1cccc(-c2cccnc2)c1-c1nn[nH]n1 [Example 19, 3-pyridin-3-yl-2-(2H-tetrazol-5-yl)benzenesulfonamide] | 24.5 | 0.3906 |  | 269 | 1780 |  |  |  |  |  |  | 50 | 50 |  |  |  |
| Cc1ccc(-c2cc(-c3ccc(C(N)=O)cc3)cc(S(N)(=O)=O)c2-c2nn[nH]n2)cc1 [Example 296, 4″-methyl-5′-sulfamoyl-4′-(2H-tetrazol-5-yl)-[1,1′:3′,1″-terphenyl]-4-carboxamide] |  |  |  |  |  | 0.637 | 3.125 | 1.953 | >200 |  | 54.8 |  |  |  |  | 127 |
| CC1(c2ccc(-c3cccc(S(N)(=O)=O)c3-c3nn[nH]n3)cc2)SC(=O)NC1=O (stereo not drawn) [Example 75, 4′-(5-methyl-2,4-dioxo-1,3-thiazolidin-5-yl)-2-(2H-tetrazol-5-yl)biphenyl-3-sulfonamide] | 4.57 | 6.25 |  | 98.1 | 9.96 |  |  |  |  |  |  | 3.906 | >200 |  |  |  |
| NS(=O)(=O)c1nccc(-c2ccc(N3CCOCC3)nc2)c1-c1nn[nH]n1 [Example 208, 6-morpholino-3′-(2H-tetrazol-5-yl)-[3,4′-bipyridine]-2′-sulfonamide] | 94.7 | 3.646 |  |  | 589 |  |  |  |  |  |  | 37.5 | >200 | 568 |  |  |
| NS(=O)(=O)c1cccc(-c2ccc(C3(O)CNC3)cc2)c1-c1nn[nH]n1 [Example 315, 4′-(3-hydroxyazetidin-3-yl)-2-(2H-tetrazol-5-yl)-[1,1′-biphenyl]-3-sulfonamide] |  |  |  |  |  | 11.6 | 4.688 | 0.3906 | 3.125 |  | 510 |  |  |  | 33.4 |  |
| NS(=O)(=O)c1cccc(-c2ccc(C3(C(F)(F)F)OCCO3)nc2)c1-c1nn[nH]n1 [Example 22, 2-(2H-tetrazol-5-yl)-3-{6-[2-(trifluoromethyl)-1,3-dioxolan-2-yl]pyridin-3-yl}benzenesulfonamide] | 2 | 1.563 |  | 26.7 | 31.8 |  |  |  |  |  |  | 6.25 | 200 |  |  |  |
| Cc1sccc1-c1cccc(S(N)(=O)=O)c1-c1nn[nH]n1 [Example 108, 3-(2-methylthiophen-3-yl)-2-(2H-tetrazol-5-yl)benzenesulfonamide] | 5.8 | 1.172 |  |  | 255 |  |  |  |  |  |  | 18.75 | 37.5 | 45 |  |  |
| Cc1ccccc1-c1cccc(S(N)(=O)=O)c1-c1nn[nH]n1 [Example 325, 2′-methyl-2-(2H-tetrazol-5-yl)-[1,1′-biphenyl]-3-sulfonamide] |  |  |  |  |  | 1.3 | 25 | 3.125 | 37.5 |  | 228 |  |  |  |  | 13.1 |
| NS(=O)(=O)c1cccc(-c2ccc(C(=O)N3CCOCC3)cc2)c1-c1nn[nH]n1 [Example 10, 4′-(morpholin-4-ylcarbonyl)-2-(2H-tetrazol-5-yl)biphenyl-3-sulfonamide] | 3.7 | 3.125 |  | 986 | 62.6 |  |  |  |  |  |  | 6.25 | >200 |  |  |  |
| NS(=O)(=O)c1cccc(C2=CCCOC2)c1-c1nn[nH]n1 [Example 63, 3-(5,6-dihydro-2H-pyran-3-yl)-2-(2H-tetrazol-5-yl)benzenesulfonamide] | 48.9 | 0.7813 |  | 1320 | 1560 |  |  |  |  |  |  | 50 | 100 |  |  |  |
